Assay results published in the supplement of paper PMC7108870.

Experiments:
HEK293sieSTAT3(wt) [1] = assay: drug sensitivity score (DSS), viability CellTiter-Glo (DSS (dimensionless)); higher = more growth inhibition; extreme values may be limits of the assay; conditions: 72 h; STAT3 variant: wild type
Outline: (§1)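 HEK293 cells bearing a STAT3-dependent luciferase reporter and overexpressing wild-type or mutant STAT3 were incubated with compounds at 5 concentrations in 10-fold steps for 72 hours at 37°C and 5% CO2. CellTox Green fluorescence and then CellTiter-Glo luminescence were measured, and values were normalised to negative and positive control wells. In Breeze, a drug sensitivity score was computed from the dose-response curve area.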

HEK293sieSTAT3(Y640F) [2] = assay: as above; conditions: 72 h; STAT3 variant: Y640F (constitutively active)
Outline: as §1

HEK293sieSTAT3(wt) [3] = assay: drug sensitivity score (DSS), cytotoxicity CellTox Green (DSS (dimensionless)); higher = more cytotoxic; extreme values may be limits of the assay; conditions: 72 h; STAT3 variant: wild type
Outline: as §1

HEK293sieSTAT3(Y640F) [4] = assay: as above; conditions: 72 h; STAT3 variant: Y640F (constitutively active)
Outline: as §1

SMILES: Cc1nc(=O)c2cc(CN(C)c3ccc(C(=O)N[C@@H](CCC(=O)O)C(=O)O)s3)ccc2[nH]1 [Raltitrexed] (top concentration tested 1000 nM)
- drug sensitivity score (HEK293sieSTAT3(wt) [1]): 15.1
- drug sensitivity score (HEK293sieSTAT3(Y640F) [2]): 20.1
- drug sensitivity score (HEK293sieSTAT3(wt) [3]): 2.49
- drug sensitivity score (HEK293sieSTAT3(Y640F) [4]): 0

SMILES: O=C(NC[C@H](O)CO)c1ccncc1Nc1ccc(I)cc1F [Pimasertib] (top concentration tested 10000 nM)
- drug sensitivity score (HEK293sieSTAT3(wt) [1]): 0
- drug sensitivity score (HEK293sieSTAT3(Y640F) [2]): 0.57
- drug sensitivity score (HEK293sieSTAT3(wt) [3]): 0
- drug sensitivity score (HEK293sieSTAT3(Y640F) [4]): 0

SMILES: COc1cc(OC2CCN(C)CC2)ccc1Nc1ncc2c(n1)n(C1CCCC1)c(=O)n2C [AZ 3146] (top concentration tested 10000 nM)
- drug sensitivity score (HEK293sieSTAT3(wt) [1]): 11.3
- drug sensitivity score (HEK293sieSTAT3(Y640F) [2]): 8.94
- drug sensitivity score (HEK293sieSTAT3(wt) [3]): 11.4
- drug sensitivity score (HEK293sieSTAT3(Y640F) [4]): 4.52

SMILES: O=C1CN2Cc3c(ccc(Cl)c3Cl)N=C2N1 [Anagrelide] (top concentration tested 10000 nM)
- drug sensitivity score (HEK293sieSTAT3(wt) [1]): 0.64
- drug sensitivity score (HEK293sieSTAT3(Y640F) [2]): 0.64
- drug sensitivity score (HEK293sieSTAT3(wt) [3]): 0.62
- drug sensitivity score (HEK293sieSTAT3(Y640F) [4]): 0.01

SMILES: COc1cc2/c(=N/c3ccc(Br)cc3F)nc[nH]c2cc1OCC1CCN(C)CC1 [Vandetanib] (top concentration tested 1000 nM)
- drug sensitivity score (HEK293sieSTAT3(wt) [1]): 4.73
- drug sensitivity score (HEK293sieSTAT3(Y640F) [2]): 2.31
- drug sensitivity score (HEK293sieSTAT3(wt) [3]): 0
- drug sensitivity score (HEK293sieSTAT3(Y640F) [4]): 0

SMILES: COc1cc(N2CCC(N3CCN(C)CC3)CC2)ccc1Nc1ncnc(Nc2ccccc2S(=O)(=O)C(C)C)n1 [ASP3026] (top concentration tested 10000 nM)
- drug sensitivity score (HEK293sieSTAT3(wt) [1]): 8.01
- drug sensitivity score (HEK293sieSTAT3(Y640F) [2]): 7.3
- drug sensitivity score (HEK293sieSTAT3(wt) [3]): 4.8
- drug sensitivity score (HEK293sieSTAT3(Y640F) [4]): 0.7

SMILES: COc1cc(N2CCN(C)CC2)ccc1Nc1nccc(-c2cn(C)c3cnccc23)n1 [AZ191] (top concentration tested 10000 nM)
- drug sensitivity score (HEK293sieSTAT3(wt) [1]): 4.19
- drug sensitivity score (HEK293sieSTAT3(Y640F) [2]): 6.19
- drug sensitivity score (HEK293sieSTAT3(wt) [3]): 2.77
- drug sensitivity score (HEK293sieSTAT3(Y640F) [4]): 1.68

SMILES: O=C(O)C1(C(=O)O)CCC1.[NH2-].[NH2-].[Pt+2] [Carboplatin] (top concentration tested 100000 nM)
- drug sensitivity score (HEK293sieSTAT3(wt) [1]): 10.6
- drug sensitivity score (HEK293sieSTAT3(Y640F) [2]): 9.56
- drug sensitivity score (HEK293sieSTAT3(wt) [3]): 4.89
- drug sensitivity score (HEK293sieSTAT3(Y640F) [4]): 1.37

SMILES: Cc1ccc(C(=O)Nc2ccc(Oc3cc4cnn(C)c4cc3-c3cn[nH]c3)c(F)c2)c(=O)n1-c1ccc(F)cc1 [Merestinib] (top concentration tested 1000 nM)
- drug sensitivity score (HEK293sieSTAT3(wt) [1]): 1.38
- drug sensitivity score (HEK293sieSTAT3(Y640F) [2]): 4.06
- drug sensitivity score (HEK293sieSTAT3(wt) [3]): 0
- drug sensitivity score (HEK293sieSTAT3(Y640F) [4]): 0

SMILES: C[C@]1(O)C[C@@H](c2nc(-c3ccc4ccc(-c5ccccc5)nc4c3)c3c(N)nccn32)C1 [Linsitinib] (top concentration tested 10000 nM)
- drug sensitivity score (HEK293sieSTAT3(wt) [1]): 2.31
- drug sensitivity score (HEK293sieSTAT3(Y640F) [2]): 5.71
- drug sensitivity score (HEK293sieSTAT3(wt) [3]): 0
- drug sensitivity score (HEK293sieSTAT3(Y640F) [4]): 0

SMILES: CCN(CC)CCN(Cc1ccc(-c2ccc(C(F)(F)F)cc2)cc1)C(=O)Cn1c(SCc2ccc(F)cc2)nc(=O)c2c1CCC2 [Darapladib] (top concentration tested 1000 nM)
- drug sensitivity score (HEK293sieSTAT3(wt) [1]): 1.03
- drug sensitivity score (HEK293sieSTAT3(Y640F) [2]): 1.89
- drug sensitivity score (HEK293sieSTAT3(wt) [3]): 0.65
- drug sensitivity score (HEK293sieSTAT3(Y640F) [4]): 1.32

SMILES: CC1(C)NC(=O)N(c2ccc([N+](=O)[O-])c(C(F)(F)F)c2)C1=O [Nilutamide] (top concentration tested 10000 nM)
- drug sensitivity score (HEK293sieSTAT3(wt) [1]): 0.69
- drug sensitivity score (HEK293sieSTAT3(Y640F) [2]): 2.68
- drug sensitivity score (HEK293sieSTAT3(wt) [3]): 0.74
- drug sensitivity score (HEK293sieSTAT3(Y640F) [4]): 0

SMILES: COc1cccc2cc(-c3nc([C@H]4CC[C@H](C(=O)O)CC4)n4ncnc(N)c34)[nH]c12 [OSI-027] (top concentration tested 10000 nM)
- drug sensitivity score (HEK293sieSTAT3(wt) [1]): 6.8
- drug sensitivity score (HEK293sieSTAT3(Y640F) [2]): 7.79
- drug sensitivity score (HEK293sieSTAT3(wt) [3]): 0
- drug sensitivity score (HEK293sieSTAT3(Y640F) [4]): 0
